{"source": "patent US11814652B2", "about": "“Pluripotent stem cell differentiation-promoting agent” (Oriental Yeast Co., Ltd., priority 2018, dated 2023)", "key": {"iPS cells 201B7 strain [1]": {"test_system": "iPS cells 201B7 strain", "assay": "Flow cytometry of Brachyury/CD56 mesodermal markers, differentiation-induction in medium with β-NMN (Example 3)", "type": "cell-based, human", "protocol": "The effects of β-NMN on the mesodermal differentiation-induction of iPS cells were examined. The 201B7 strain was used as the iPS cells. The iPS cells were seeded in a 24-well plate coated with Matrigel (manufactured by Corning Incorporated) according to the manufacturer's protocol at 1×10^5 cells/well. The cells in the 24-well plate were cultured in a culture medium for iPS cells adjusted to have a final concentration of Rock inhibitor of 10 μM for 1 day. From the 1st day after seeding, the culture medium was replaced with a culture medium prepared by adjusting a mesoderm differentiation-inducing culture medium of “STEMdiff Trilineage Differentiation kit” (manufactured by STEMCELL Technologies) to have a final concentration of β-NMN of 0, 0.1, 0.25, or 1 mM for 1 day. […] Then, the cells were stained with a fluorescence-labeled anti-Brachyury antibody (manufactured by Merck, clone 3E4.2) and a fluorescence-labeled anti-CD56 antibody (manufactured by Biolegend, clone HCD56). After washing the stained cells, a flow cytometer “FACS caliber” (manufactured by Becton, Dickinson and Company) was used to analyze the fluorescence intensity of the anti-Brachyury antibody and the fluorescence intensity of the anti-CD56 antibody in each sample. […]"}, "iPS cells 201B7 strain [2]": {"test_system": "iPS cells 201B7 strain", "assay": "Flow cytometry of Brachyury/CD56 after mesodermal differentiation-induction following undifferentiated culture with β-NMN (Example 6)", "type": "cell-based, human", "settings": "β-NMN 0.25 or 1 mM before mesodermal differentiation-induction; 5th or 7th day; versus absence of β-NMN", "protocol": "The effects of culturing in the presence of β-NMN before induction of differentiation on the mesodermal differentiation-induction of iPS cells was examined. As the iPS cells, the 201B7 strain was used. The iPS cells were cultured in a culture dish in the same manner as in Example 5, and when the confluent reached 70 to 80%, the iPS cells were detached from the culture dish and collected. The collected iPS cells were seeded at 1×10^5 cells/well in a 24-well plate coated with Matrigel (manufactured by Corning Incorporated) according to the manufacturer's protocol. The cells in the 24-well plate were cultured for 1 day in a culture medium prepared by removing β-NMN from the culture medium when culturing in the culture dish and adjusting to have a final concentration of Rock inhibitor of 10 μM. From the 1st day after seeding, the medium was replaced every day with a culture medium for mesodermal differentiation-induction of “STEMdiff Trilineage Differentiation kit” (manufactured by STEMCELL Technologies). In the same manner as in Example 3, the cells sampled on the 5th or 7th day after seeding were stained with a fluorescently labeled anti-Brachyury antibody and a fluorescently labeled anti-CD56 antibody, and a flow cytometer was used to analyze the fluorescence intensity of the anti-Brachyury antibody and the fluorescence intensity of the anti-CD56 antibody in each sample. […]"}, "iPS cells 253G1 strain": {"test_system": "iPS cells 253G1 strain", "assay": "Cell number in endodermal differentiation-induction after undifferentiated culture with β-NMN (Example 5)", "type": "cell-based", "settings": "β-NMN 0.25 or 1 mM in culture medium for iPS cells before endodermal differentiation-induction; 7th day after seeding; versus no β-NMN", "protocol": "The effects of culturing in the presence of β-NMN before induction of differentiation on the endodermal differentiation-induction of iPS cells was examined. As the iPS cells, the 253G1 strain was used. iPS cells seeded on a culture dish coated with Matrigel (manufactured by Corning Incorporated) according to the manufacturer's protocol were cultured in a culture medium prepared by adjusting a culture medium for iPS cells to have a final concentration of β-NMN 0, 0.25 or 1 mM, and a final concentration of Rock inhibitor of 10 μM for 1 day. From the 1st day after seeding, the culture medium was replaced every day with a culture medium obtained by removing the Rock inhibitor from the culture medium at the time of seeding. When the confluent reached 70 to 80%, the iPS cells were detached from the culture dish and collected. The collected iPS cells were seeded at 3×10^5 cells/well in a 24-well plate coated with Matrigel (manufactured by Corning Incorporated) according to the manufacturer's protocol. The cells in the 24-well plate were cultured for 1 day in a culture medium prepared by removing β-NMN from the culture medium when culturing in the culture dish and adjusting to have a final concentration of Rock inhibitor of 10 μM. […] Cells on the 7th day after seeding were sampled and the numbers of cells were counted."}}}
{"molecule": "NC(=O)c1ccc[n+]([C@@H]2O[C@H](COP(=O)([O-])O)[C@@H](O)[C@H]2O)c1", "note": "[β-NMN, β-nicotinamide mononucleotide]", "values": [{"measurement": "ratio of Brachyury-positive CD56-positive cells", "setting": "iPS cells 201B7 strain [1]; mesodermal differentiation-inducing medium with β-NMN 0.1, 0.25 or 1 mM, 5th or 7th day, versus absence of β-NMN", "result": "no clear difference"}, {"measurement": "ratio of Brachyury-positive CD56-positive cells", "setting": "iPS cells 201B7 strain [1]; β-NMN added at 1 mM, versus culturing without β-NMN", "result": "obviously lower"}, {"measurement": "ratio of Brachyury-positive CD56-positive cells", "setting": "iPS cells 201B7 strain [2]", "result": "no clear difference"}, {"measurement": "cell number", "setting": "iPS cells 253G1 strain", "result": "no clear difference"}]}
